How the values were obtained:
ob/ob mice = conditions: 10 mg/kg p.o.
Description: The DPP-IV inhibitors were administered to overnight fasted ob/ob mice for the above stated period, followed by oral glucose challenge (2 g/kg). Blood samples collected at 0, 15, 30, 60, and 120 min after glucose load were processed as described earlier and blood glucose concentrations measured using Biochemical AutoAnalyzer, Dimension AR (Dade Behring, USA). AUC0-120 min were calculated and the percent glucose excursion was estimated at different duration of treatment compared to vehicle.

[1] = Plasma levels of active GLP-1 and insulin (unpublished observations); type: in vivo

Which “Glucose lowering (glucose excursion, AUC0-120 min vs vehicle) at 8 h” value (ob/ob mice; OGTT 2 g/kg 8 h after dosing) does the source give for N[C@@H](CC(=O)N1CCn2c(nnc2C(F)(F)F)C1)Cc1cc(F)c(F)cc1F [sitagliptin] here?
Its value is ~ 35%.

And the “Reduction in AUCGlucose at 12 h” value (ob/ob mice; OGTT 2 g/kg 12 h after dosing)?
The value was -23%.

And the “Augmentation of plasma active GLP-1” value [1]?
Its value is “twofold”.

And the “Augmentation of plasma insulin” value [1]?
The value was “twofold”.

For N#C[C@@H]1CCCN1C(=O)CNC12CC3CC(CC(O)(C3)C1)C2 [vildagliptin], which “Augmentation of plasma active GLP-1” value [1] is on record?
The value was “twofold”.

What about the “Augmentation of plasma insulin” value [1] of the same molecule?
The value was “twofold”.
